In patent US20080171783A1, “COMPOSITIONS AND METHODS FOR TREATING HYPERPROLIFERATIVE DISEASE” (Migenix Inc., priority 2006, published 2008):
Values belong to the compound of their own block, whether it stands above or below them.

Key:
Calf polymerase alpha = biological target: T1, Calf polymerase alpha (Bos taurus, UniProt A0AAA9TD94); experiment: Calf polymerase alpha inhibition (Replizyme kit); assay type: biochemical; details: for IC50: dose response
T1 construct: purchased Replizyme Ltd (Heslington, York, UK)
T1 sequence (A0AAA9TD94 1-1441): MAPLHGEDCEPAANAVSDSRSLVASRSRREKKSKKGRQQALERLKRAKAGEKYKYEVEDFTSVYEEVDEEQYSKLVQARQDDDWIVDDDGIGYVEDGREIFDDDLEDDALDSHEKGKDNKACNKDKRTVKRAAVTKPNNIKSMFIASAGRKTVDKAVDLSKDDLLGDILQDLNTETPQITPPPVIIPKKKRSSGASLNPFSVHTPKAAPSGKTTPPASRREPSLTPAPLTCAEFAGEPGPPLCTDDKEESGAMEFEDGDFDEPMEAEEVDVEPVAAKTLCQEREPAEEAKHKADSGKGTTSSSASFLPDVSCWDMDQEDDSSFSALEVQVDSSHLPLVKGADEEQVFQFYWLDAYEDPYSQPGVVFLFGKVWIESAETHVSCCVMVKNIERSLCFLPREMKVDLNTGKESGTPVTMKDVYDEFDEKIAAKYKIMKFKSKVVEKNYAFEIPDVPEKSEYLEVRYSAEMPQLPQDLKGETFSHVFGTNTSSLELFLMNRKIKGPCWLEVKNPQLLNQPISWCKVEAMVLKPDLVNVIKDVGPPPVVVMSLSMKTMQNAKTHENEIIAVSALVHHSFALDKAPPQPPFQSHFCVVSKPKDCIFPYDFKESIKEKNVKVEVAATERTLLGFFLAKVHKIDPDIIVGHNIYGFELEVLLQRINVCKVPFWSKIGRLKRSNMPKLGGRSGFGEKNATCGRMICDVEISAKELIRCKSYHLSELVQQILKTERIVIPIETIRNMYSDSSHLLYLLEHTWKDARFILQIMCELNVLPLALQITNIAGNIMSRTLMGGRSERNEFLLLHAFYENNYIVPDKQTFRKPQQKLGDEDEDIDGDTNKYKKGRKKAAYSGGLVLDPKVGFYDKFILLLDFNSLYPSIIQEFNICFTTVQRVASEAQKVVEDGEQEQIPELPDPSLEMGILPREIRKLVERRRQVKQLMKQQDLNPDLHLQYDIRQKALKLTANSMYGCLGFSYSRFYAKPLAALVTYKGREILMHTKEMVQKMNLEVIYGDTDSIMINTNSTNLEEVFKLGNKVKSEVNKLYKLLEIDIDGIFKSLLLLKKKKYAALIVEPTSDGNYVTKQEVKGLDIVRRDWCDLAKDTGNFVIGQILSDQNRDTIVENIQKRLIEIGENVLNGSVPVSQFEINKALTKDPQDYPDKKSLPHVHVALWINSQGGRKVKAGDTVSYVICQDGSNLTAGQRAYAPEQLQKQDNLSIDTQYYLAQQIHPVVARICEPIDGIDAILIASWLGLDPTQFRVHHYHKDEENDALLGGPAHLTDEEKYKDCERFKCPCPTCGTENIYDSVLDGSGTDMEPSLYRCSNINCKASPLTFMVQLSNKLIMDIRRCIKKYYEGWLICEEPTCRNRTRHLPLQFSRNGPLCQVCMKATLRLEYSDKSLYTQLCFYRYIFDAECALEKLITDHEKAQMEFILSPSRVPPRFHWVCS
Experimental: (§1) Calf polymerase alpha and human polymerase alpha investigations were performed with a kit available from Replizyme Ltd (Heslington, York, UK).

HT29 = experiment: cells; details: HT29, single dose 10 μM, four days
Experimental: (§2) Compounds were solubilized at […] in DMSO and were stored at −20° C. Test compounds were initially tested at a single concentration of 10 μM and a subset of test compounds were further tested in selected cell lines using a six concentration dose response curve.
(§3) Cell Preparation Cancer cell lines were passaged in T-75 flasks prior to use in the assay in cell culture medium recommended by the ATCC (American Type Culture Collection; Table 6). On the day preceding the assay, the cells were split 1:2 to assure they were in an exponential growth phase at the time of compound treatment. Total cell and viability quantification was performed using a hemocytometer and Trypan Blue dye exclusion. […] The cells were resuspended at the appropriate cell per mL (Table 6) in tissue culture medium and added to the microtitre plates in a volume of 100 μL. Colon cell lines were incubated overnight at 37° C./5% CO2 to allow for cell adherence to the plates.
(§4) Plate Format: Each plate contains cell control wells (cells only), drug calorimetric control wells (drug only) as well as experimental wells (drug plus cells). Samples were tested in triplicate at a concentration of 10 μM and five half-logarithmic dilutions.
(§5) Cell Viability by XTT: Following incubation at 37° C. in a 5% CO2 incubator for four days, the test plates were stained with the tetrazolium dye XTT (2,3-bis(2-methoxy-4-nitro-5-sulfophenyl)-5-[(phenylamino)carbonyl]-2H-tetrazolium hydroxide). XTT-tetrazolium was metabolized by the mitochondrial enzymes of metabolically active cells to a soluble formazan product. XTT solution was prepared daily as a stock of 1 mg/mL in RPMI1640. Phenazine methosulfate (PMS) solution was prepared at 0.15 mg/mL in phosphate buffered saline (PBS) and stored in the dark at −20° C. XTT/PMS stock was prepared immediately before use by adding 40 μL of PMS per mL of XTT solution. Fifty (50) microlitres of XTT/PMS was added to each well of the plate and the plate was reincubated for 4 hours at 37° C. Plates were sealed with adhesive plate sealers and shaken gently or inverted several times to mix the soluble formazan product and the plate was read spectrophotometrically at 450/650 nm with a Molecular Devices Vmax plate reader. […] An Average Response Factor (ARF) was calculated for each compound by averaging the ten Percentage of Control values for the cell lines. […] Deviations below 100% control indicate activity. The concentration of each tested compound is 10 μM.

[1] = test system: 5 Leukemia and 5 Colon Cancer Cell Lines; experiment: Cell viability by XTT, cell line panel; assay type: cell-based; details: 10 μM
Experimental: as §2, §3, §4, §5

THP-1 = experiment: Cell viability by XTT; details: THP-1, single dose 10 μM, four days
Experimental: as §2, §3, §4, §5

Jurkat = experiment: Cell viability by XTT; details: single dose 10 μM, four days
Experimental: as §2, §3, §4, §5

Caco-2 = experiment: Cell viability by XTT
Experimental: as §2, §3, §4, §5

HL-60 = experiment: Cell viability by XTT; assay type: cell-based; details: HL-60, single dose 10 μM, four days
Experimental: as §2, §3, §4, §5

HCT-15 = experiment: Cell viability by XTT; assay type: cell-based; details: HCT-15, single dose 10 μM, four days
Experimental: as §2, §3, §4, §5

human polymerase alpha = biological target: T2, human polymerase alpha (Homo sapiens, UniProt P09884); experiment: Human polymerase alpha inhibition (Replizyme kit); assay type: biochemical; details: dose response
T2 construct: purchased Replizyme Ltd (Heslington, York, UK)
T2 sequence (P09884 1-1462): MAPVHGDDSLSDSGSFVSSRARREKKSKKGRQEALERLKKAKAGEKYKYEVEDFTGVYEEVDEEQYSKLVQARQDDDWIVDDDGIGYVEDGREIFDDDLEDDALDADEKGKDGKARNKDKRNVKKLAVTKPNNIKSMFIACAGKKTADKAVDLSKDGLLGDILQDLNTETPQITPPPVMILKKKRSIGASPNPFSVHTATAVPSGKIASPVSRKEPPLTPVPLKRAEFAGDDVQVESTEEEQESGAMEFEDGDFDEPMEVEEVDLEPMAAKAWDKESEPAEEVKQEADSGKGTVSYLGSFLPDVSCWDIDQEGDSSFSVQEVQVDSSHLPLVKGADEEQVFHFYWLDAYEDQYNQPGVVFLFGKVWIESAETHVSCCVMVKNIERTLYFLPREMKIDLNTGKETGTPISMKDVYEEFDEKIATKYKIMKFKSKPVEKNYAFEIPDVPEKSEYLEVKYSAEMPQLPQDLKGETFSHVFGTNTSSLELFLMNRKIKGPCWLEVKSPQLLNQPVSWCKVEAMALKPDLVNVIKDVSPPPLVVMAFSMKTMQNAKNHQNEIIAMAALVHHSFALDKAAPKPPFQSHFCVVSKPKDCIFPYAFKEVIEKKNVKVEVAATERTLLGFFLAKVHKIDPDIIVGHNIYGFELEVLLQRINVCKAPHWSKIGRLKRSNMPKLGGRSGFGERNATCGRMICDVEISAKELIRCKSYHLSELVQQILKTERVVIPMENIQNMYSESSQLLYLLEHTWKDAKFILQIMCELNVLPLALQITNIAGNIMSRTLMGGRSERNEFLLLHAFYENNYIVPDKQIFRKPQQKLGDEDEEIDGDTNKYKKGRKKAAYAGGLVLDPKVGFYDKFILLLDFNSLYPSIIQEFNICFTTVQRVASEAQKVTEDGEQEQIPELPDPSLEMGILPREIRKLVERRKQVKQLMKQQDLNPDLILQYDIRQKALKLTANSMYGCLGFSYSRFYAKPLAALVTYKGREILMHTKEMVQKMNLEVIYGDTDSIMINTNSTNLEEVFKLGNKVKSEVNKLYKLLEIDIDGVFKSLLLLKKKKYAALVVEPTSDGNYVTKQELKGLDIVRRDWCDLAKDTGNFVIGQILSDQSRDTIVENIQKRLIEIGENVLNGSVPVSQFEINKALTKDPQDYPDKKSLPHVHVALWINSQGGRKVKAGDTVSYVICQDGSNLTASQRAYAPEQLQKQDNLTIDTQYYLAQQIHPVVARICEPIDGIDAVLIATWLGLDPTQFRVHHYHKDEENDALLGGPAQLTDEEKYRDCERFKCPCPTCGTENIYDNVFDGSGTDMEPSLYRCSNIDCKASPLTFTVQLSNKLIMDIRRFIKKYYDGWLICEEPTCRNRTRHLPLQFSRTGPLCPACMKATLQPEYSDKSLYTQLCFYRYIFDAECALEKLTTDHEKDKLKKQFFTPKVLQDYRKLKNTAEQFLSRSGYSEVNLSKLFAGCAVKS
Experimental: as §1

[2] = Cytotoxicity Huh-7 cells (MTS/PMS); assay type: cell-based; details: human, 3-day incubation
Experimental: Cytotoxicity of compounds for use in treating hyperproliferative diseases or disorders was tested in Huh-7 cells using tetrazolium salt MTS combined with the electron acceptor PMS in a 96-well format. Six doses of each compound was tested, starting at about 1.2 μM to 0.4 μM serially diluted in a final 1% DMSO solution in DMEM/F12 media. Terfenadine was used as a positive control. Cells were seeded at 2.5×10^5 cells/mL in each well of the 96-well plates in a final volume of 0.1 mL, and then incubated at 37° C. in the presence of 5% CO2 overnight. Compounds (in media) were added the following day and the treated cells were incubated another 3-days at 37° C. in the presence of 5% CO2. After the 3-day incubation, 20 μL of MTS/PMS (3-(4,5-dimethylthiazol-2-yl)-5-(3-carboxymethoxy-phenyl)-2-(4-sulfophenyl)-2H-tetrazolium) was added to each well. After about a one to four hour incubation of MTS/PMS at 37° C. and 5% CO2—that is, until an OD490 absorbance of ≧0.6 for the wells containing cells with media only, the level of cytotoxicity at each concentration was calculated. […] Dose response results from the cytotoxicity assay (CC50) are provided in Table 4 in comparison with IC50 data (from Table 2)

[3] = at 10 μM, single point screening

Structure (SMILES): Cc1ccc(NC(=O)[C@H](CCCCN)NC(=O)Cc2ccc(-c3ccccc3)cc2)cc1 [Compound 50, (S)-6-AMINO-2-(2-BIPHENYL-4-YL-ACETYLAMINO)-HEXANOIC ACID P-TOLYLAMIDE]
% Inhibition (Calf polymerase alpha; [3]): 71%
Percentage of Cell Control (HT29): 27.7%
ARF (Average Response Factor, Average Percentage of Control) ([1]; average of the ten Percentage of Control values): 77.7%
Range (Percentage of Control over the same 10 cell lines) ([1]; lowest to highest of the ten cell lines): 4.6 to 122%
Percentage of Cell Control (THP-1): 89.7%
Percentage of Cell Control (Jurkat): 4.6%
Percentage of Cell Control (Caco-2; Caco-2, single dose 10 μM, four days): 8.3%
CC50 (Caco-2; read-out: Activity (TC50), Caco-2, six concentration dose response, Table 9): 9.4 µM
Percentage of Cell Control (HL-60): 91.7%
Percentage of Cell Control (HCT-15): 114.3%

IC50 (human polymerase alpha): 1.5 µM
Structure (SMILES): NCCCC[C@H](NC(=O)Nc1ccc(-c2ccccc2)cc1)C(=O)Nc1ccc(C2CCCCC2)cc1 [Compound 119, (S)-6-AMINO-2-(3-BIPHENYL-4-YL-UREIDO)-HEXANOIC ACID (4-CYCLOHEXYL-PHENYL)-AMIDE]
inhibition at 10 µM (Calf polymerase alpha; [3]): 102%
IC50 (Calf polymerase alpha): 1.5 µM
CC50 at 3 days [2]: 12.2 µM

IC50 (human polymerase alpha): 3 µM
Structure (SMILES): Cc1ccc(NC(=O)[C@H](CCCCN)NC(=O)Nc2ccc3c(c2)Cc2ccccc2-3)cc1 [Compound 125, (S)-6-AMINO-2-[3-(9H-FLUOREN-2-YL)-UREIDO]-HEXANOIC ACID P-TOLYLAMIDE]
inhibition at 10 µM (Calf polymerase alpha; [3]): 100%
IC50 (Calf polymerase alpha): 2.8 µM
CC50 at 3 days [2]: 9.7 µM
